Laboratory results from patent US20110217265A1, “Screening for Inhibitors of HCV Amphipathic Helix (AH) Function” (priority 2008, published 2011).

Key:
genotype 2a 4BAH2 = genotype 2a 4BAH2 (Hepatitis C virus genotype 2a, UniProt Q99IB8); assay: DLS assay of 4BAH2-induced POPC lipid vesicle aggregation, genotype 2a peptide; format: biochemical; design: purchased Anaspec Corporation (San Jose, Calif., USA); host or cells: chemical synthesis; conditions: POPC vesicles
Method: Small Unilamellar Vesicle Preparation. Vesicles of 1-palmitoyl-2-oleoyl-sn-glycero-3-phosphocholine (POPC) (Avanti Polar Lipids, Alabaster, Ala., USA) with well-defined size distributions were prepared by the extrusion method. Throughout the experiments, we used a phosphate buffered saline (PBS) buffer (10 mM, pH 7.5 and 150 mM NaCl) in […] MilliQ water (Millipore, Oregon, USA). Extruded vesicles (referred to simply as vesicles) were prepared in the following manner. Lipid films were prepared by first drying the as-supplied lipids dissolved in chloroform under a gentle stream of nitrogen at room temperature. Then the resulting lipid film was stored under vacuum for at least 5 hr in order to remove residual chloroform. Vesicles were prepared by first swelling the lipid film in aqueous solution then vortexing periodically for 5 min. […]
Dynamic Light Scattering. Dynamic light scattering (DLS) was performed using a doubled, Nd:YAG laser (model 532 DPSS, Coherent Laser Group, Santa Clara, Calif.) with a wavelength, λ, of […] and a Brookhaven digital autocorrelator, and analyzed by digital autocorrelator software (Brookhaven Instruments Corporation, New York, USA). […] DLS results were analyzed to give an intensity-weighted size distribution using a discrete Laplace inversion routine. […]

2a HCV RNA replicon = 2a HCV RNA replicon assay (FL-J6/JFH-5'C19Rluc2AUbi, luciferase); format: cell-based, Hepatitis C Virus genotype 2a; conditions: full-length J6/JFH Luc, luciferase at 72 hr of treatment
Summary of the method: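 Huh7.5 cells electroporated with in vitro-transcribed FL-J6/JFH-5′C19Rluc2AUbi RNA (full-length genotype 2a, Renilla luciferase) and treated from 24 h, with compound refreshed daily for 72 h. Replication measured as Renilla luminescence, normalized to untreated or matched-DMSO samples. Alamar Blue fluorescence on the same wells assessed cytotoxicity.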

4BAH2 peptide = molecular target: T1, 4BAH2 peptide (Hepatitis C virus genotype 1b, UniProt Q9WMX2); assay: AFM of 4BAH2 peptide oligomerization on SiOx substrate; format: biochemical
T1 construct: purchased Anaspec Corporation (San Jose, Calif., USA); host or cells: chemical synthesis
Method: Atomic Force Microscopy. The AFM experiments were carried out on a XE-Bio (Park Systems Suwon, Korea) in contact and non-contact modes. Rectangular-shaped silicon cantilevers were used (SICON for contact mode and ACT for non-contact mode, AppNano, Santa Clara, Calif.). […] All measurements were performed in a PBS buffer. Images in fluid were obtained both in contact mode with an imaging force of less than 200 pN and in noncontact mode. However, images presented in this manuscript were only obtained in non-contact mode in fluid. The scan line speed was optimized between 0.3 Hz to 1 Hz with a pixel number of 256×256, depending on the scan size. Images were recorded in height, amplitude, phase, and error modes. All measurements were done on the height images. All images shown were subjected to a first order plane-fitting procedure to compensate for sample tilt. The cross-sectional analysis was carried out on images subjected only to a first order plane-fitting procedure. Topographical and grain analyses were performed using the software XEI 1.7.1 supplied by Park Systems (Suwon, Korea).

Chain of genotype 2a 4BAH2 (Q99IB8 1758-1780): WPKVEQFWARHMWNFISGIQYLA
T1 sequence (Q9WMX2 1754-1776): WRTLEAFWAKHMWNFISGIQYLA

CC(C)CN(C)c1nc(N)c(C(=O)NC(=N)N)nc1Cl [C4, 3-amino-N-carbamimidoyl-6-chloro-5-(isobutyl(methyl)amino)pyrazine-2-carboxamide]
Inhibition of genotype 2a 4BAH2-induced vesicle aggregation (DLS) (genotype 2a 4BAH2): essentially abrogated | Inhibition of HCV genotype 2a viral genome replication (2a HCV RNA replicon): exhibited inhibition | Effect on 4BAH2 peptide aggregation / self-oligomerization (AFM) (4BAH2 peptide): inhibit peptide aggregation
